Results from patent US10174033B2, “N6-substituted adenosine derivatives and N6-substituted adenine derivatives and uses thereof” (INSTITUTE OF MATERIA MEDICA, CHINESE ACADEMY OF MEDICAL …, priority 2009, dated 2019).

Columns and labels:
mice = experiment: Sub-threshold hypnotic dose sodium pentobarbital induced sleeping test; assay type: in vivo; conditions: intraperitoneal, 30 min before sub-threshold sodium pentobarbital (22 mg/kg ip)
Description: N^6-substituted adenosine derivatives and/or N^6-substituted adenine derivatives potentiated sodium pentobarbital-induced sleep in mice
Name of Experiment: Sub-threshold hypnotic dose sodium pentobarbital induced sleeping test
Method of Experiment: Mice (n=7-10) were pretreated with test compound or vehicle, after 30 min, a maximal sub-threshold hypnotic dose of sodium pentobarbital (22 mg/kg) was given intraperitoneally (ip). (On some condition, the sub-threshold dosage of sodium pentobarbital should be optimized to the maximum dose, at which the rate of sleep onset of vehicle group is less than 10%). […] Following sodium pentobarbital injection, each mouse was observed 15 min for onset of sleep. The percentage of sleep onset was calculated as: (number of animals falling asleep/total number of animals)×100%.

male ICR-mice = experiment: Potentiation of sodium pentobarbital sleeping time test; assay type: in vivo
[1] = bioassay-guided fractionation, sedative and hypnotic effects; conditions: compound isolated from Gastrodia elata and Gymnadenia conopsea, result in words
PC12 cell = conditions: result in words; cited from earlier work
adenosine A2A receptor = adenosine A2A receptor (Homo sapiens, UniProt P29274); conditions: result in words; cited from earlier work
Chain of adenosine A2A receptor (P29274 whole entry): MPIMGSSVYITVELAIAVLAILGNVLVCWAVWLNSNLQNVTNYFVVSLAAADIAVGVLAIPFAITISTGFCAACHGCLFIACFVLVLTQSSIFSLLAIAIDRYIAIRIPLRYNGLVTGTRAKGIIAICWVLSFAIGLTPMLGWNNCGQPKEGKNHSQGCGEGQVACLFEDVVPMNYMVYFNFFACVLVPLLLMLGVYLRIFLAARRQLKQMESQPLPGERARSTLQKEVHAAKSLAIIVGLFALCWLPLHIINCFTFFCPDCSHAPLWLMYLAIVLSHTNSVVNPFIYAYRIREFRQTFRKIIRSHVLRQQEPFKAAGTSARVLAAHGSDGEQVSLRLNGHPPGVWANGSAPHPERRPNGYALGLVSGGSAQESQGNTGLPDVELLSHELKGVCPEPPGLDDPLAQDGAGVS

[2] = intraperitoneal, 5 mg/kg, 38 mg/kg sodium pentobarbital 30 min later
[3] = intraperitoneal, 1 mg/kg, 38 mg/kg sodium pentobarbital 30 min later
[4] = oral, 5 mg/kg, 38 mg/kg sodium pentobarbital 60 min later
[5] = oral, 4 mg/kg, 38 mg/kg sodium pentobarbital 60 min later

SMILES	Sleep rate (%) (mice; 5 mg/kg)	Sleep prolonging rate (%) (male ICR-mice; [2])	Sleep rate (%) (mice; 1 mg/kg)	other results
O=C(O)[C@@H](Cc1c[nH]c2ccccc12)Nc1ncnc2c1ncn2[C@@H]1O[C@H](CO)C(O)C1O (some centres unmarked) [Example 111, N-(6-adenosine)-(L)-tryptophan]	14	69		
Nc1cccc(CNc2ncnc3c2ncn3[C@@H]2O[C@H](CO)[C@@H](O)[C@H]2O)c1 [Example 7, N^6-(m-aminobenzyl)-adenosine]			100	Sleep prolonging rate (%) (male ICR-mice; [3]): 101%; Sleep prolonging rate (%) (male ICR-mice; [4]): 50%
OC[C@H]1O[C@@H](n2cnc3c(NCc4ccc(C(F)(F)F)cc4)ncnc32)[C@H](O)[C@@H]1O [Example 13, N^6-(p-trifluoromethylbenzyl)-adenosine]	57	23		
OC[C@H]1O[C@@H](n2cnc3c(NCCc4c[nH]c5ccccc45)ncnc32)[C@H](O)[C@@H]1O [Example 44, N^6-[(1H-Indole-3-yl)-ethyl]-adenosine]	86	147		Sleep prolonging rate (%) (male ICR-mice; [4]): 78%
COc1cc(CNc2ncnc3c2ncn3[C@@H]2O[C@H](CO)[C@@H](O)[C@H]2O)ccc1O [Example 23, N^6-(3-methoxy-4-hydroxybenzyl)-adenosine]			100	Sleep prolonging rate (%) (male ICR-mice; [5]): 87%
O=C(O)[C@@H](Cc1ccccc1)Nc1ncnc2c1ncn2[C@@H]1O[C@H](CO)C(O)C1O (some centres unmarked) [Example 103, N-(6-adenosine)-(D)-phenylalanine]	17	19		
COc1cc(CNc2ncnc3c2ncn3[C@@H]2O[C@H](CO)C(O)C2O)cc(OC)c1O (some centres unmarked) [Example 36, N^6-(4-hydroxy-3,5-dimethxoybenzyl)-adenosine]	86	336		Sleep prolonging rate (%) (male ICR-mice; [4]): 121%
OC[C@H]1O[C@@H](n2cnc3c(NCc4ccc(O)cc4)ncnc32)[C@H](O)[C@@H]1O [Example 2, N^6-(p-hydroxybenzyl)-adenosine]			63	sedative and hypnotic effects [1]: significant sedative and hypnotic effects; preventing PC12 cell apoptosis (PC12 cell): effective in preventing PC12 cell apoptosis; binding to adenosine A2A receptor (adenosine A2A receptor): binding to adenosine A2A receptor; Sleep prolonging rate (%) (male ICR-mice; oral, 1 mg/kg, 38 mg/kg sodium pentobarbital 60 min later): 90%
OC[C@H]1O[C@@H](n2cnc3c(NCc4ccccc4O)ncnc32)[C@H](O)[C@@H]1O [Example 3, N^6-(o-hydroxybenzyl)-adenosine]			88	Sleep prolonging rate (%) (male ICR-mice; [4]): 92%
OC[C@H]1O[C@@H](n2cnc3c(N4CCN(c5ccccc5)CC4)ncnc32)C(O)C1O (some centres unmarked) [Example 16]	50	34		
O=[N+]([O-])c1ccc(CNc2ncnc3c2ncn3[C@@H]2O[C@H](CO)[C@@H](O)[C@H]2O)cc1 [Example 8, N^6-(p-nitrobenzyl)-adenosine]			63	Sleep prolonging rate (%) (male ICR-mice; [3]): 16%; Sleep prolonging rate (%) (male ICR-mice; [4]): 29%
O=C(O)[C@@H](CO)Nc1ncnc2c1ncn2[C@@H]1O[C@H](CO)C(O)C1O (some centres unmarked) [Example 125, N-(6-adenosine)-(D)-serine]				Sleep rate (%) (mice; 5 mg/kg, listed as N-(6-adenosine)-(D)-serine): 14%; Sleep prolonging rate (%) (male ICR-mice; intraperitoneal, 5 mg/kg, 38 mg/kg sodium pentobarbital 30 min later, listed as N-(6-adenosine)-(D)-serine): 0%
O=C(O)C(Cc1c[nH]c2ccc(O)cc12)Nc1ncnc2c1ncn2[C@@H]1O[C@H](CO)C(O)C1O (some centres unmarked) [Example 115, N-(6-adenosine)-5-hydroxy tryptophan]	17	60		
OC[C@H]1O[C@@H](n2cnc3c(NCc4ccc(O)c(O)c4)ncnc32)[C@H](O)[C@@H]1O [Example 22, N^6-(3,4-dihydroxybenzyl)-adenosine]	100	32	87	Sleep prolonging rate (%) (male ICR-mice; [5]): 74%
OC[C@H]1O[C@@H](n2cnc3c(NCCc4c[nH]cn4)ncnc32)[C@H](O)[C@@H]1O [Example 43, N^6-[(1H-imidazole-4-yl)-ethyl]-adenosine]			88	Sleep prolonging rate (%) (male ICR-mice; [3]): 43%
COc1ccc(CCNc2ncnc3c2ncn3[C@@H]2O[C@H](CO)[C@@H](O)[C@H]2O)cc1O [Example 40, N^6-[(3-hydroxy-4-methoxyphenyl)-ethyl]-adenosine]			50	Sleep prolonging rate (%) (male ICR-mice; [3]): 1%
COc1cc(CCNc2ncnc3c2ncn3[C@@H]2O[C@H](CO)[C@@H](O)[C@H]2O)ccc1O [Example 39, N^6-[(3-methoxy-4-hydroxyphenyl)-ethyl]-adenosine]			88	Sleep prolonging rate (%) (male ICR-mice; [3]): 13%
OC[C@H]1O[C@@H](n2cnc3c(NCc4ccco4)ncnc32)[C@H](O)[C@@H]1O [Example 17, N^6-(2-furanylmethyl)-adenosine]	71			
COc1ccccc1CNc1ncnc2c1ncn2[C@@H]1O[C@H](CO)[C@@H](O)[C@H]1O [N^6-(o-methoxybenzyl)-adenosine]			100	
OC[C@H]1O[C@@H](n2cnc3c(NCc4ccc(F)cc4)ncnc32)[C@H](O)[C@@H]1O [Example 11, N^6-(p-fluorobenzyl)-adenosine]	71	73		
OC[C@H]1O[C@@H](n2cnc3c(NCc4ccc5c(c4)OCO5)ncnc32)[C@H](O)[C@@H]1O [Example 31, N^6-(3,4-methylenedioxybenzyl)-adenosine]	100	175		
OC[C@H]1O[C@@H](n2cnc3c(NCc4ccc(OC(F)(F)F)cc4)ncnc32)[C@H](O)[C@@H]1O [Example 12, N^6-(p-trifluoromethoxybenzyl)-adenosine]	43	44		
O=C(O)[C@@H](CO)Nc1ncnc2c1ncn2[C@@H]1O[C@H](CO)C(O)C1O (some centres unmarked) [Example 124, N-(6-adenosine)-(L)-serine]				Sleep rate (%) (mice; 5 mg/kg, listed as N-(6-adenosine)-(L)-serine): 29%; Sleep prolonging rate (%) (male ICR-mice; intraperitoneal, 5 mg/kg, 38 mg/kg sodium pentobarbital 30 min later, listed as N-(6-adenosine)-(L)-serine): 15%
CC(Nc1ncnc2c1ncn2[C@@H]1O[C@H](CO)[C@@H](O)[C@H]1O)c1ccccc1 (mixture of isomers) [Example 45, N^6-[(±)-1-(phenyl)-ethyl]-adenosine]	100	254		Sleep prolonging rate (%) (male ICR-mice; [4]): 201%
Cc1ccc(-c2nc3ccc(C)cn3c2CC(=O)N(C)C)cc1 [zolpidem, reference compound]				Sleep rate (%) (mice; 2 mg/kg): 75%
COc1ccc(CNc2ncnc3c2ncn3[C@@H]2O[C@H](CO)[C@@H](O)[C@H]2O)cc1O [Example 29, N^6-(4-methoxy-3-hydroxybenzyl)-adenosine]			86	
COc1ccc(CNc2ncnc3c2ncn3[C@@H]2O[C@H](CO)[C@@H](O)[C@H]2O)cc1OC [Example 30, N^6-(3,4-dimethoxybenzyl)-adenosine]			100	
O=C(O)[C@@H](Cc1ccc(O)cc1)Nc1ncnc2c1ncn2[C@@H]1O[C@H](CO)C(O)C1O (some centres unmarked) [Example 106, N-(6-adenosine)-(D)-tyrosine]	17	82		
COc1cc(CNc2ncnc3nc[nH]c23)ccc1O [N^6-(3-methoxy-4-hydroxybenzyl)-adenine]			38	
